Laboratory results taken from publication PMC10005185, “Structure-guided engineering of a receptor-agonist pair for inducible activation of the ABA adaptive response to drought” (Science Advances, 2023).

Assays:
HAB1 with PYR1 = target: T1, HAB1 with PYR1 (Arabidopsis thaliana, UniProt O49686); test: PP2C inhibition assay, HAB1 with PYR1; format: biochemical; conditions: 1 μM iSB09, PYR1
T1 construct: His; made in house
Experimental: His-tagged receptors and phosphatases were purified using nickel–nitrilotriacetic acid (Ni-NTA) affinity chromatography. Protein integrity was analyzed by SDS–polyacrylamide gel electrophoresis, followed by InstantBlue staining. Phosphatase activity was measured using p-Nitrophenyl Phosphate (pNPP) (25 mM) as substrate, 10 mM MnCl2,1 μM PP2C, and 2 μM of the indicated receptors. Proteins were incubated with the ligands for 10 min at room temperature. pNPP was then added to start the reactions, and the absorbance at 405 nm was monitored for 20 min in a ViktorX5 plate reader. Assays were repeated twice. For dose-response experiments, IC50 values were obtained with GraphPad Prism 9 using a nonlinear regression curve fit. Each ligand concentration was tested in triplicate. Phosphatase activity of ABI1 was measured using RRA(phosphoT)VA peptide as a substrate, as described ([27]).

tomato plants = test: IR thermography of leaf temperature, tomato; format: in vivo, Solanum lycopersicum; conditions: 10 μM
Experimental: For experiments using N. benthamiana or S. lycopersium, 1-month-old plants grown under long-day conditions (16-hour light/8-hour dark) were sprayed with 10 mM MES (pH 5.7) + 0.02% Silwet L77 supplemented with either 50 μM ABA, or the indicated concentration of iSB07/iSB09 or 0.1% DMSO as a mock-treated control. IR images were taken using a FLIR E95 thermocamera 1 day after the treatment (for N. benthamiana) or 2 and 5 days (for S. lycopersicum). Quantification was performed using the FLIR tools software on fully expanded leaves by analyzing 10 sections per leaf. At least six plants per genotype and treatment were analyzed in each experiment. Experiments were repeated twice. The average plant temperature ± SD of all the plants for each treatment and genotype was calculated and used to report the increase in temperature produced by each treatment. Statistical comparisons among genotypes were performed by either pairwise t tests or one-way ANOVA.
Fig. S6. QB lacks bioactivity in tomato whereas iSB09 is
(A) Quantification of the leaf temperature difference at 2 and 5 days after spraying tomato plants with 0.1 % DMSO
(mock- treated control), 10 µM iSB09 or 10 µM QB.
Asterisk indicates p<0.001 (Student’s t test). Values show individual points and average ± SD (n=4 replicates for mock and chemical treatments). (B) IR-images of representative tomato plants at 2 days after being treated with 0.1 % DMSO
Photographs were taken with white light (leaf panel) or infrared thermography (right panel) using the camera FLIR
HAB1 phosphatase activity in presence of PYL4. IC50 values for iSB09 or QB-dependent inhibition of HAB1 by AtPYL4. Values (average of duplicates) show PP2C activity after incubation with the indicated concentration of ligand and AtPYL4 at 1:2 ratio (1 µM phosphatase:2 µM receptor).
(1 picture or pasted object on this page, not shown here)

[1] = tested on: Arabidopsis thaliana seedlings; test: Root growth assay; format: in vivo; conditions: 10 μM
Experimental: Seedlings were grown on vertically oriented Murashige and Skoog (MS) plates for 4 to 5 days. Afterward, seedlings were transferred to MS supplemented with the indicated concentrations of the different ligands and kept on vertical orientation. Ten days later, the plates were scanned on a flatbed scanner to produce image files suitable for quantitative analysis of root growth using the NIH Image software ImageJ. The experiment was performed in triplicate (n = 13 to 16). Statistical comparisons were performed by either pairwise t tests or one-way ANOVA using GraphPad Prism 9.

[2] = tested on: MAPKKK18 promoter-LUC reporter; test: pMAPKKK18-LUC luciferase reporter assay; format: in vivo, Arabidopsis thaliana; conditions: 100 μM, 6 hours
Experimental: […]18-LUC seedlings were grown in 24-well plates (25 to 35 seeds per well) filled with 1 ml of liquid MS medium for 7 days. MS medium was replaced with fresh medium supplemented with 100 μM D-luciferin, potassium salt (GoldBio), and the indicated treatments with iSB07, iSB09, or ABA. Seedlings were incubated for 6 hours, and luminescence was recorded with a LAS-3000 imager (Fujifilm) equipped with a charge-coupled device camera using 2-min exposures. Eight-bit images were transformed in rainbow false color and quantified using Fiji. The experiment was repeated at least twice.

[3] = tested on: Arabidopsis thaliana seedlings (WT Col-0, overexpressing lines, receptor mutants); test: Seedling establishment assay; format: in vivo
Experimental: Seedling establishment was scored as the percentage of seeds that developed green expanded cotyledons and the first pair of true leaves at 5 or 7 days. Seedling establishment assays in the presence of ABA receptor agonists were performed in 24-well plates, where approximately 25 to 35 seeds per well were sown. Each well contained a different treatment. The experiment was repeated at least twice.

[4] = tested on: Arabidopsis thaliana CsPYL1^5m plants; test: Drought resistance experiments; format: in vivo; conditions: 50 μM
Experimental: For drought assays under long-day conditions, seeds from WT Col-0 and pAlligator2-35[…] plants were grown in MS medium for 7 days. Then, seedlings were transferred to individual 0.18-liter pots containing equal amount of moisted soil composed of peat, vermiculite, and perlite at 1:0.5:0.5 ratio (v/v). Plants were grown under long-day conditions in a controlled environment growth chamber at 22°C under 16-hour light/8-hour dark photoperiod under well-watered conditions for 3 weeks. Then, watering was withheld for 14 days. […] The first application was performed the same day the watering was withheld, and the second one was performed 7 days later. Watering was restored and survival rate was measured 6 days after […]. Gravimetric analysis of water loss in pots was performed along the experiment. […] Pots were weighted at 7-day intervals. Pictures of the plants were taken at the beginning of the experiment, 26 days after water deprivation and 12 days after […]. Survival rate and foliar leaf area were measured 12 days after […]. For drought experiments, 6 to 10 plants per genotype and treatment were analyzed in each experiment. The experiment was performed twice.

T1 sequence (O49686 whole entry): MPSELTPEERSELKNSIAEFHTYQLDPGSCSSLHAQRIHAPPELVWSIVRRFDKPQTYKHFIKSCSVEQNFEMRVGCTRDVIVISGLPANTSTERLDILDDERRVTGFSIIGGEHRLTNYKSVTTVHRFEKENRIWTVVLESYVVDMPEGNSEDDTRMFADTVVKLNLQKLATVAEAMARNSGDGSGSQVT
T1 sequence (Q9CAJ0 179-511 partner limits assumed): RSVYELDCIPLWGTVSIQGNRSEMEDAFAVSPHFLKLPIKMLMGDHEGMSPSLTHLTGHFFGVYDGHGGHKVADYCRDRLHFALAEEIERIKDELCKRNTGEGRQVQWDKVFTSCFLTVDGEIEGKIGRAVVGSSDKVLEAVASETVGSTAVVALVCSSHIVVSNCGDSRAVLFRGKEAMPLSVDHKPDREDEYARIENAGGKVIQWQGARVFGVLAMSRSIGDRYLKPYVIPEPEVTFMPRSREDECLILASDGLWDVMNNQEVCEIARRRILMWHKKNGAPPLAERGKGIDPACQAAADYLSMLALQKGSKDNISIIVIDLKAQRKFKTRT

`CCn1c(=O)cc(C)c2cc(CNS(=O)(=O)c3ccccc3)ccc21` [iSB09] was tested, and the inhibition at 1 µM (HAB1 with PYR1) was 60 to 70%, the “bioactivity in tomato (leaf temperature)” value (tomato plants; 2 and 5 days after spraying) was “active” and the “persistence of the effect on leaf temperature after spraying” value (tomato plants; tomato) was “up to 5 days”. The “inhibition of root growth” value ([1]; CsPYL1^5m lines) was “marked inhibition”, the “inhibition of root growth” value ([1]; WT plants) was “did not significantly inhibit” and the “induction of LUC relative to 25 μM ABA” value [2] was “approximately twofold higher”. The “dosage able to inhibit seedling establishment” value ([3]; WT Col-0) was 5 µM, the “agonist-induced inhibition of seedling establishment” value ([3]; mutants lacking functional PYR1 and PYL1, 10 μM iSB09) was “insensitive” and the “dosage able to inhibit seedling establishment” value ([3]; plants that express CsPYL1^5m) was 0.5 µM. The “drought resistance compared to mock-treated plants” value ([4]; CsPYL1^5m plants, long-day conditions) was “markedly enhanced drought resistance”, the soil water consumption ([4]; CsPYL1^5m plants, long-day, 10 days after stopping irrigation) was 40% and the “drought resistance compared to mock-treated plants” value ([4]; short-day conditions) was “enhanced resistance to drought”.
